Data on twelve compounds can be found in patent US7531576B2, “Biphenyl derivatives” (Pola Chemical Industries, Inc., priority 2000, dated 2009).

The target in this experiment is ACAT. Nature of the experiment: Evaluation of ACAT inhibitory activity (rat liver enzyme preparation, [14C]-oleoyl CoA substrate). The following applies: ACAT from liver of rats on high-cholesterol feed; 30° C.; pIC50 from concentration-response curve by the nonlinear least square method. It counts as biochemical. The procedure: IR (cm^−1) (KBr): • 1517, 1521, 2962. Test (Evaluation of ACAT Inhibitory Activity) (1) Preparation of the Enzyme (ACAT)
(1-1) Each rat was reared for about 3 weeks on high-cholesterol feed (solid feed prepared by adding 1% of cholesterol, 0.3% of sodium cholate, 0.1% of propylthiouracil and 3% of lard to a conventional feed MF).
(1-2) The liver of the rat reared in (1-1) was collected and shredded. 10 mM HEPES buffer (pH 7.4) which contained 0.25 M of sucrose and 1 mM of EDTA was added in an amount about three times as much as the weight of the liver to suspend the latter. The liver was then homogenized by a glass-Teflon homogenizer.
(1-3) The homogenized liver was centrifuged for 15 minutes under 22000×g, and the supernatant was collected.
(1-4) The supernatant was centrifuged further for 60 minutes under 100000×g. To the precipitates, 10 mM HEPES buffer (pH 7.4) containing 0.25 M of sucrose and 1 mM of EDTA therein was added in about a half of the volume used in (1-2), and the precipitates were suspended again.
(1-5) The suspension was again centrifuged for 60 minutes under 100000×g, and the resulting precipitates were collected. 10 mM HEPES buffer (pH 7.4) containing 0.25 M of sucrose and 2 mM of DTT therein was added to suspend the precipitates. The suspension was stored at −80° C.
(2) Preparation of Reagents
0.75 M Phosphate buffer (pH 7.4), 800 μM BSA and 100 mM DTT were mixed together in amounts of 1.0 mL, 0.5 mL and 0.1 mL, respectively, and ultrapure water (3.4 mL) was added.
A refrigerated sample of the enzyme was diluted with the “reaction buffer” described above to 2.5 mg protein/mL.
10^−3 M Solutions of the compounds to be evaluated were prepared with methanol. 3×10^−4 M Solutions were each prepared by adding 50% methanol (700 μL) to the corresponding 10^−3 M solution (300 μL). 10^−4 M Solutions were each prepared by adding 50% methanol (600 μL) to the corresponding […] solution (300 μL). Up to 10^−7 M solutions (serial 3-fold dilutions), the solutions were prepared by a similar procedure.
(3) Assay Method of ACAT Activity
(3-1) ACAT (20 μL), the reaction buffer (20 μL) and desired one (5 μL) of test samples were placed in a 1.5 mL test tube and incubated at 30° C. for 10 minutes (the resulting solution will hereinafter be called “I”).
(3-2) Reaction substrate [^14C]-oleoyl CoA (5 μL) was added into “I”, and was allowed to react at 30° C. for 4 minutes.
(3-3) Four minutes later, methanol (250 μL) was added to terminate the reaction, and then, a lipid mixture (40 μL), recovery-percentage-correcting [^3H]-cholesteryl oleate (10 μL) and hexane (700 μL) were added into the test tube (this solution will hereinafter be called “II”).
(3-4) “II” was stirred in a mixer, and the hexane layer (500 μL) was collected and transferred into another test tube (this solution will hereinafter be called “III”).
(3-5) “III” was evaporated to dryness, dissolved in chloroform (10 μL), and then spotted on a TLC plate. At that time, cholesteryl oleate was also spotted.
(3-6) After the spots were dried, they were developed with a 85:15:0.5 mixture of hexane, diethyl ether and acetic acid as a developer solvent, and then stained with iodine. A plate section corresponding to the spot of cholesteryl oleate was cut out and placed in a vial. At the same time, the reaction substrate [^14C]-oleoyl CoA (5 μL) and the recovery-percentage-correcting [^3H]-cholesteryl oleate (10 μL) were spotted on the TLC plate, and similarly, plate sections were cut out and placed in vials, respectively.
(3-7) Subsequently, “Aquazole II” (about 10 mL) was added to the vials. After the vials were allowed to stand for a while, they were measured for [^14C] and [^3H] radioactivities.
Using the radioactivities, the % recovery of [^14C]-cholesteryl oleate formed by the enzymatic reaction was calculated from the radioactivity of [^3H], and from the radioactivity of [^14C], the yield of cholesteryl oleate was calculated. […]
Compound `CCCCCN(Cc1ccc(-c2ccccc2-c2nnn[nH]2)cc1)C(=O)Nc1c(C(C)C)cccc1C(C)C` [Compound of the formula (4), N-(2,6-Diisopropylphenyl)-N′-pentyl-N′-[[2′-(1H-tetrazol-5-yl)-1,1′-biphenyl-4-yl]methyl]urea] came in with a PIC50 of 5.72.
The same measure for `CCCCCN(Cc1ccc(-c2ccccc2-c2nnn[nH]2)cc1)C(=O)Nc1c(C)cc(C)cc1C` [Compound of the formula (5), N′-Pentyl-N′-[[2′-(1H-tetrazol-5-yl)-1,1′-biphenyl-4-yl]methyl]-N-(2,4,6-trimethylphenyl)urea]: 5.65; for `CCCCCN(Cc1ccc(-c2ccccc2-c2nnn[nH]2)cc1)C(=O)Nc1c(F)cc(F)cc1F` [Compound of the formula (6), N′-Pentyl-N′-[[2′-(1H-tetrazol-5-yl)-1,1′-biphenyl-4-yl]methyl]-N-(2,4,6-trifluorophenyl)urea]: 5.52.
The compound `CCCCCCCN(Cc1ccc(-c2ccccc2-c2nnn[nH]2)cc1)C(=O)Nc1c(F)cc(F)cc1F` [Compound of the formula (7), N′-Heptyl-N′-[[2′-(1H-tetrazol-5-yl)-1,1′-biphenyl-4-yl]methyl]-N-(2,4,6-trifluorophenyl)urea] registered a PIC50 of 6.23.
`CCCCCCCN(Cc1ccc(-c2ccccc2-c2nnn[nH]2)cc1)C(=O)Nc1ccc(F)cc1F` [Compound of the formula (8), N-(2,4-Difluorophenyl)-N′-heptyl-N′-[[2′-(1H-tetrazol-5-yl)-1,1′-biphenyl-4-yl]methyl]urea] displayed a PIC50 of 5.49.
The same measure for `CCCCCCCN(Cc1ccc(-c2ccccc2-c2nnn[nH]2)cc1)C(=O)NC1CCCCC1` [Compound of the formula (9), N-Cyclohexyl-N′-heptyl-N′-[[2′-(1H-tetrazol-5-yl)-1,1′-biphenyl-4-yl]methyl]urea]: 5.18; for `CCCCCN(Cc1ccc(-c2ccccc2NC(=O)C(F)(F)F)cc1)C(=O)Nc1c(F)cc(F)cc1F` [Compound of the formula (10), N′-Pentyl-N′-[[2′-[[(trifluoromethyl)carbonyl]-amino]-1,1′-biphenyl-4-yl]methyl]-N-(2,4,6-trifluorophenyl)urea]: 6.57; for `CCCCCN(Cc1ccc(-c2ccccc2NS(=O)(=O)C(F)(F)F)cc1)C(=O)Nc1c(F)cc(F)cc1F` [Compound of the formula (11), N′-Pentyl-N′-[[2′-[[(trifluoromethyl)sulfonyl]-amino]-1,1′-biphenyl-4-yl]methyl]-N-(2,4,6-trifluorophenyl)urea]: 5.71.
Turning to `CCCCCCCN(Cc1ccc(-c2ccccc2S(=O)(=O)NC(=O)Nc2c(C(C)C)cccc2C(C)C)cc1)C(=O)Nc1c(F)cc(F)cc1F` [Compound of the formula (12), N′-[[2′-[[[[(2,6-Diisopropylphenyl)amino]-carbonyl]amino]sulfonyl]-1,1′-biphenyl-4-yl]methyl]-N′-heptyl-N-(2,4,6-trifluorophenyl)urea], the PIC50 is on record as 6.40.
On to `CCCCCN(CC(=O)Nc1c(C(C)C)cccc1C(C)C)Cc1ccc(-c2ccccc2-c2nnn[nH]2)cc1` [Compound of the formula (13), N-[[[(2,6-Diisopropylphenyl)amino]carbonyl]methyl]-N-pentyl-N-[[2′-(1H-tetrazol-5-yl)-1,1′-biphenyl-4-yl]methyl]amine], for which the PIC50 turned out to be 5.39.
The figure for `CCCCCN(CC(=O)Nc1c(C)cc(C)cc1C)Cc1ccc(-c2ccccc2-c2nnn[nH]2)cc1` [Compound of the formula (14), N-Pentyl-N-[[2′-(1H-tetrazol-5-yl)-1,1′-biphenyl-4-yl]methyl]-N-[[[(2,4,6-trimethylphenyl)amino]-carbonyl]methyl]amine] is 5.23; for `CCCCCN(CC(=O)Nc1c(F)cc(F)cc1F)Cc1ccc(-c2ccccc2-c2nnn[nH]2)cc1` [Compound of the formula (15), N-Pentyl-N-[[2′-(1H-tetrazol-5-yl)-1,1′-biphenyl-4-yl]methyl]-N-[[[(2,4,6-trifluorophenyl)amino]-carbonyl]methyl]amine] it is 5.21.
